Data: US9075070B2, “HTS fluorescence polarization assay for inhibitors of Keap1-Nrf2 interaction” (RUTGERS, THE STATE UNIVERSITY OF NEW JERSEY, priority 2011, dated 2015)

Target: human Keap1 Kelch domain (Homo sapiens, UniProt Q14145)
Experiment: FP binding assay: titration of fluorescently labeled Nrf2 peptide probes with Keap1 Kelch domain
Conditions: difference in the free and the bound anisotropy of the FITC-labeled peptide

Sequence of human Keap1 Kelch domain (Q14145 with tags, fused parts or gaps): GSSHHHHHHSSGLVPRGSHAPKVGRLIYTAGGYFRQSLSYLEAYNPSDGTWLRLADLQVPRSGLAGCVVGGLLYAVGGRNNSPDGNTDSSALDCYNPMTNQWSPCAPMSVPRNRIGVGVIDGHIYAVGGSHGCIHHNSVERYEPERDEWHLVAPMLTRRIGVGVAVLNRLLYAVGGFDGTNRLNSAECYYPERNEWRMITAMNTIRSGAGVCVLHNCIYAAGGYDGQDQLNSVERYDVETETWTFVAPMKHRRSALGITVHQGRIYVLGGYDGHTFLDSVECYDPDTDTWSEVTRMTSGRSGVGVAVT

Dynamic Range (ΔmA): 64.2 mA
Structure (SMILES): CC(C)C[C@H](NC(=O)[C@H](Cc1ccccc1)NC(=O)[C@H](CCC(=O)O)NC(=O)CNC(=O)[C@@H](NC(=O)[C@H](CCC(=O)O)NC(=O)[C@H](CCC(=O)O)NC(=O)[C@H](CC(=O)O)NC(=O)[C@H](CC(C)C)NC(=O)[C@H](CCC(N)=O)NC(=O)[C@H](CC(C)C)NC(=O)[C@H](CCC(N)=O)NC(=O)[C@H](C)NC(=O)[C@H](Cc1ccccc1)NC(=S)Nc1ccc2c(c1)C(=O)OC21c2ccc(O)cc2Oc2cc(O)ccc21)[C@@H](C)O)C(=O)O [FITC-14mer Nrf2]
